What was measured:
Type in all cases: in vivo
[1] = test system: beggarticks (hairy beggarticks, Bidens pilosa); assay: Test E greenhouse herbicide test, pre- and postemergence
Procedure, shortened: (§1)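 Compounds in surfactant-containing solvent are applied to soil right after sowing (silt loam) and, in parallel, to 1- to 4-leaf plants in a peat-based medium. Weed control is scored visually on a 0 (none) to 100 (complete) scale at 14 to 21 d.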

[2] = test system: crabgrass, Brazilian (Brazilian crabgrass, Digitaria horizontalis); assay: as above
Procedure, shortened: as §1

[3] = test system: crabgrass, large (large crabgrass, Digitaria sanguinalis); assay: as above; details: Preemergence
Procedure, shortened: as §1

[4] = test system: field bindweed (Convolvulus arvensis); assay: as above
Procedure, shortened: as §1

[5] = test system: foxtail, giant (giant foxtail, Setaria faberii); assay: as above; details: Preemergence
Procedure, shortened: as §1

[6] = test system: goosegrass (Eleusine indica); assay: as above; details: Preemergence
Procedure, shortened: as §1

[7] = test system: horseweed (Conyza canadensis); assay: as above
Procedure, shortened: as §1

[8] = test system: kochia (Kochia scoparia); assay: as above
Procedure, shortened: as §1

[9] = test system: nightshade (eastern black nightshade, Solanum ptycanthum); assay: as above; details: Preemergence
Procedure, shortened: as §1

[10] = test system: panicum, fall (fall panicum, Panicum dichotomiflorum); assay: as above
Procedure, shortened: as §1

[11] = test system: ragweed (common ragweed, Ambrosia elatior); assay: as above
Procedure, shortened: as §1

[12] = test system: sandbur (southem sandbur, Cenchrus echinatus); assay: as above
Procedure, shortened: as §1

[13] = test system: surinam grass (Brachiaria decumbens); assay: as above; details: Preemergence
Procedure, shortened: as §1

[14] = test system: waterhemp (common waterhemp, Amaranthus rudis); assay: as above
Procedure, shortened: as §1

[15] = test system: waterhemp_RES1 (ALS & Triazine resistant common waterhemp, Amaranthus rudis); assay: Test E greenhouse herbicide test, postemergence
Procedure, shortened: (§2)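 Visual injury scored 0 (no effect) to 100 (complete control) versus untreated plants, 14 to 21 d after treatment in the greenhouse. Plants were treated postemergence at 1- to 4-leaf stage, 2–18 cm height, in peat-moss/vermiculite medium.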

[16] = test system: waterhemp_RES2 (ALS & HPPD resistant common waterhemp, Amaranthus rudis); assay: Test E greenhouse herbicide test, postemergence
Procedure, shortened: as §2

[17] = 62 g ai/ha, Postemergence, scale 0 to 100 (0 no effect, 100 complete control)
[18] = 62 g ai/ha, Preemergence, scale 0 to 100 (0 no effect, 100 complete control)
[19] = 125 g ai/ha, Postemergence, scale 0 to 100 (0 no effect, 100 complete control)
[20] = 125 g ai/ha, Preemergence, scale 0 to 100 (0 no effect, 100 complete control)
[21] = 250 g ai/ha, Postemergence, scale 0 to 100 (0 no effect, 100 complete control)
[22] = Postemergence, 31 g ai/ha, visual, scale 0 no effect to 100 complete control
[23] = Preemergence, 31 g ai/ha, scale 0 to 100, 0 no effect, 100 complete control
[24] = Preemergence, 250 g ai/ha, visual, scale 0 no effect to 100 complete control
[25] = 62 g ai/ha, scale 0 to 100 (0 no effect, 100 complete control)
[26] = 125 g ai/ha, scale 0 to 100 (0 no effect, 100 complete control)
[27] = 31 g ai/ha, scale 0 to 100, 0 no effect, 100 complete control
[28] = 250 g ai/ha, visual, scale 0 no effect to 100 complete control
[29] = 31 g ai/ha, visual, scale 0 no effect to 100 complete control
[30] = 250 g ai/ha, scale 0 to 100 (0 no effect, 100 complete control)

Cc1ccc2ccccc2c1-c1c(OC(=O)OC(C)C)c(C)nn(C)c1=O [Compound 72]
50: Plant response rating, Crabgrass, Brazil [2, 22] | Plant response rating, Crabgrass, Brazil [2, 23] | Plant response rating, Waterhemp_RES2 [16, 26]
85: Plant response rating, Panicum, Fall [10, 21] | Plant response rating, Ragweed [11, 22]
35: Plant response rating, Foxtail, Giant [5, 27] | Plant response rating, Kochia [8, 18] | Plant response rating, Sandbur [12, 18] | Plant response rating, Waterhemp_RES2 [16, 29]
30: Plant response rating, Crabgrass, Large [3, 26]
5: Plant response rating, Surinam Grass [13, 27]
75: Plant response rating, Horseweed [7, 19] | Plant response rating, Panicum, Fall [10, 22] | Plant response rating, Panicum, Fall [10, 23] | Plant response rating, Sandbur [12, 19] | Plant response rating, Surinam Grass [13, 26]
98: Plant response rating, Beggarticks [1, 19] | Plant response rating, Beggarticks [1, 20] | Plant response rating, Beggarticks [1, 21] | Plant response rating, Crabgrass, Brazil [2, 24] | Plant response rating, Kochia [8, 17] | Plant response rating, Kochia [8, 24] | Plant response rating, Panicum, Fall [10, 24]
70: Plant response rating, Beggarticks [1, 23] | Plant response rating, Crabgrass, Brazil [2, 21] | Plant response rating, Field Bindweed [4, 22] | Plant response rating, Foxtail, Giant [5, 26] | Plant response rating, Horseweed [7, 21] | Plant response rating, Kochia [8, 22] | Plant response rating, Sandbur [12, 17] | Plant response rating, Sandbur [12, 24]
0: Plant response rating, Crabgrass, Large [3, 25] | Plant response rating, Crabgrass, Large [3, 27] | Plant response rating, Field Bindweed [4, 18] | Plant response rating, Field Bindweed [4, 23] | Plant response rating, Horseweed [7, 23] | Plant response rating, Nightshade [9, 27] | Plant response rating, Ragweed [11, 23] | Plant response rating, Sandbur [12, 23]
80: Plant response rating, Beggarticks [1, 18] | Plant response rating, Field Bindweed [4, 17] | Plant response rating, Foxtail, Giant [5, 28] | Plant response rating, Goosegrass [6, 28] | Plant response rating, Nightshade [9, 25] | Plant response rating, Panicum, Fall [10, 17] | Plant response rating, Panicum, Fall [10, 18] | Plant response rating, Panicum, Fall [10, 19] | Plant response rating, Sandbur [12, 21] | Plant response rating, Waterhemp [14, 19] | Plant response rating, Waterhemp_RES1 [15, 25] | Plant response rating, Waterhemp_RES1 [15, 26]
100: Plant response rating, Beggarticks [1, 17] | Plant response rating, Beggarticks [1, 24] | Plant response rating, Horseweed [7, 18] | Plant response rating, Horseweed [7, 20] | Plant response rating, Horseweed [7, 24] | Plant response rating, Nightshade [9, 26] | Plant response rating, Nightshade [9, 28] | Plant response rating, Ragweed [11, 24] | Plant response rating, Waterhemp [14, 18] | Plant response rating, Waterhemp [14, 20] | Plant response rating, Waterhemp [14, 24]
95: Plant response rating, Field Bindweed [4, 19] | Plant response rating, Ragweed [11, 21]
60: Plant response rating, Crabgrass, Brazil [2, 18] | Plant response rating, Crabgrass, Brazil [2, 19] | Plant response rating, Goosegrass [6, 26] | Plant response rating, Horseweed [7, 17] | Plant response rating, Horseweed [7, 22] | Plant response rating, Kochia [8, 20] | Plant response rating, Sandbur [12, 20] | Plant response rating, Sandbur [12, 22] | Plant response rating, Waterhemp_RES1 [15, 29]
40: Plant response rating, Crabgrass, Brazil [2, 17] | Plant response rating, Goosegrass [6, 25] | Plant response rating, Surinam Grass [13, 25] | Plant response rating, Waterhemp_RES2 [16, 25]
90: Plant response rating, Beggarticks [1, 22] | Plant response rating, Crabgrass, Brazil [2, 20] | Plant response rating, Crabgrass, Large [3, 28] | Plant response rating, Field Bindweed [4, 21] | Plant response rating, Field Bindweed [4, 24] | Plant response rating, Kochia [8, 19] | Plant response rating, Kochia [8, 21] | Plant response rating, Panicum, Fall [10, 20] | Plant response rating, Ragweed [11, 17] | Plant response rating, Ragweed [11, 18] | Plant response rating, Ragweed [11, 19] | Plant response rating, Ragweed [11, 20] | Plant response rating, Surinam Grass [13, 28] | Plant response rating, Waterhemp [14, 21] | Plant response rating, Waterhemp [14, 23] | Plant response rating, Waterhemp_RES1 [15, 30]
20: Plant response rating, Goosegrass [6, 27]
65: Plant response rating, Field Bindweed [4, 20] | Plant response rating, Foxtail, Giant [5, 25] | Plant response rating, Waterhemp [14, 17] | Plant response rating, Waterhemp [14, 22] | Plant response rating, Waterhemp_RES2 [16, 30]
25: Plant response rating, Kochia [8, 23]
